# Data: PMC9030254, “Target Hopping from Protein Kinases to PXR: Identification of Small-Molecule Protein Kinase Inhibitors as Selective Modulators of Pregnane X Receptor from TüKIC Library” (Cells, 2022)
# What was measured:
# Assay in all cases: Kinase profiling
# Assay type in all cases: biochemical
# AuroraA = biological target: T1, AuroraA (Homo sapiens, UniProt O14965)
# T1 construct: purchased ProQinase (Freiburg, Germany)
# T1 sequence (O14965 1-403): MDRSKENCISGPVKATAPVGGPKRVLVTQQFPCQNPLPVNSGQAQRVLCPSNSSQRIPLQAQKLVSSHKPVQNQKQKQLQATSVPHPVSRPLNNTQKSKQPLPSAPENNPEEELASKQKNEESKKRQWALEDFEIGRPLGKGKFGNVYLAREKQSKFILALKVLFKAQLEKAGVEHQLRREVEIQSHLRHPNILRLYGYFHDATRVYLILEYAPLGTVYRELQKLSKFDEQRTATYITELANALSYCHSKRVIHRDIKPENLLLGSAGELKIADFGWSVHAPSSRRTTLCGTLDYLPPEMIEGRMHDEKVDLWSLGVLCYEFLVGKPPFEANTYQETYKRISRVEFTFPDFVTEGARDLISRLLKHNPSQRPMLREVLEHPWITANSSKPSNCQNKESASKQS
# Protocol: (§1) The analysis was performed by ProQinase (Freiburg, Germany).
# CAMK2G = biological target: T2, CAMK2G (Homo sapiens, UniProt Q13555)
# T2 construct: purchased ProQinase (Freiburg, Germany)
# Protocol: as §1
# CDK3/CycE1 = biological target: T3, CDK3/CycE1 (Homo sapiens, UniProt Q00526)
# T3 construct: purchased ProQinase (Freiburg, Germany)
# Protocol: as §1
# HIPK1 = biological target: T4, HIPK1 (Homo sapiens, UniProt Q86Z02)
# T4 construct: purchased ProQinase (Freiburg, Germany)
# Protocol: as §1
# MTOR = biological target: T5, MTOR (Homo sapiens, UniProt P42345)
# T5 construct: purchased ProQinase (Freiburg, Germany)
# Protocol: as §1
# MUSK = biological target: T6, MUSK (Homo sapiens, UniProt O15146)
# T6 construct: purchased ProQinase (Freiburg, Germany)
# T6 sequence (O15146 24-869): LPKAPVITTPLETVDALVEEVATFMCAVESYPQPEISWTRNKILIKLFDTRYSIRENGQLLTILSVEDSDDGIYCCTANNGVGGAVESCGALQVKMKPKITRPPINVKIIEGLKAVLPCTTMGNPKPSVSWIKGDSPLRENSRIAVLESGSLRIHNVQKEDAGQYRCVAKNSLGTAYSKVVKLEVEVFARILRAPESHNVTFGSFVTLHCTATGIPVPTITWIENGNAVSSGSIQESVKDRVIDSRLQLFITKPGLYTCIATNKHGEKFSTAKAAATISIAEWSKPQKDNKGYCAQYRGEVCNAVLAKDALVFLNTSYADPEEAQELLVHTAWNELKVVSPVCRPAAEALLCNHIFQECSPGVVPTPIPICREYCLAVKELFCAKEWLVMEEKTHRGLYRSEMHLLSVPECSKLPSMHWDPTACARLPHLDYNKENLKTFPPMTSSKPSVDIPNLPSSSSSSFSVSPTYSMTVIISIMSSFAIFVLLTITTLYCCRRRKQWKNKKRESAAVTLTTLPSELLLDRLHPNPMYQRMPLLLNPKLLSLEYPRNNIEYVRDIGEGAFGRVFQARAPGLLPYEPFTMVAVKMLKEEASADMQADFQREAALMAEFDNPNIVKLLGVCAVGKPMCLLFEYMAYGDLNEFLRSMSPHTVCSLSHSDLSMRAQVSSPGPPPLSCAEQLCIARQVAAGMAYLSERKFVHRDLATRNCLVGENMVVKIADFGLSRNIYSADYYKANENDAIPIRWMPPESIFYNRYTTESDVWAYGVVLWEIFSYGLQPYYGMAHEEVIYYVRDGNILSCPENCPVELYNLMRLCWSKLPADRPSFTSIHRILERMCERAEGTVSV
# Protocol: as §1
# MYLK = biological target: T7, MYLK (Homo sapiens, UniProt Q15746)
# T7 construct: purchased ProQinase (Freiburg, Germany)
# Protocol: as §1
# PDGFRbeta = biological target: T8, PDGFRbeta (Homo sapiens, UniProt P09619)
# T8 construct: purchased ProQinase (Freiburg, Germany)
# Protocol: as §1
# PKCmu = biological target: T9, PKCmu (Homo sapiens, UniProt Q15139)
# T9 construct: purchased ProQinase (Freiburg, Germany)
# T9 sequence (Q15139 1-912): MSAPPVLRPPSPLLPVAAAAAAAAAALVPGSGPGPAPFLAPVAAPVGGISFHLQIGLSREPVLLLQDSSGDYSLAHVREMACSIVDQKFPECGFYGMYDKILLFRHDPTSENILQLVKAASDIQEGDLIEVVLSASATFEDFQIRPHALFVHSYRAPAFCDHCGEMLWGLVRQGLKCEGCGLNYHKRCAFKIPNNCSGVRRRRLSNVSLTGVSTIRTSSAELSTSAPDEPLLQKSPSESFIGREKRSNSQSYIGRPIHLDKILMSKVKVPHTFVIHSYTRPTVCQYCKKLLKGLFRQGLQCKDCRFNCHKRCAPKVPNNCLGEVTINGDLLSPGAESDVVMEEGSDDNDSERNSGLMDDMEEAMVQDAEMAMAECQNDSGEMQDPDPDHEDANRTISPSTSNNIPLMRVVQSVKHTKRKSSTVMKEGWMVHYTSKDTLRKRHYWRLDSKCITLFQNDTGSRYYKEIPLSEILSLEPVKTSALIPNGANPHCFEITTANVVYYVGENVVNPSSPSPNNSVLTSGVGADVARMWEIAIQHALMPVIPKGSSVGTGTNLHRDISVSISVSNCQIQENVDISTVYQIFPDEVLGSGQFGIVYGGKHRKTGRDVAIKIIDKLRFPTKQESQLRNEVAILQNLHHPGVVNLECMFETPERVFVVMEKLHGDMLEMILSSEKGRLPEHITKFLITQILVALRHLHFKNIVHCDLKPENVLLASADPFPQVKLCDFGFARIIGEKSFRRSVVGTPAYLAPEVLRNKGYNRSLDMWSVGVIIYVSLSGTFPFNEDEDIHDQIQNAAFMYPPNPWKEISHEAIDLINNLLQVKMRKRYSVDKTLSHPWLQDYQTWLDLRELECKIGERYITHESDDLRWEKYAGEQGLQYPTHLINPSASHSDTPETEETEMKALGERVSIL
# Protocol: as §1
# RPS6KA1 = biological target: T10, RPS6KA1 (Homo sapiens, UniProt Q15418)
# T10 construct: purchased ProQinase (Freiburg, Germany)
# Protocol: as §1
# SRC = biological target: T11, SRC (Homo sapiens, UniProt P12931)
# T11 construct: purchased ProQinase (Freiburg, Germany)
# Protocol: as §1
# T3 sequence (Q00526 whole entry): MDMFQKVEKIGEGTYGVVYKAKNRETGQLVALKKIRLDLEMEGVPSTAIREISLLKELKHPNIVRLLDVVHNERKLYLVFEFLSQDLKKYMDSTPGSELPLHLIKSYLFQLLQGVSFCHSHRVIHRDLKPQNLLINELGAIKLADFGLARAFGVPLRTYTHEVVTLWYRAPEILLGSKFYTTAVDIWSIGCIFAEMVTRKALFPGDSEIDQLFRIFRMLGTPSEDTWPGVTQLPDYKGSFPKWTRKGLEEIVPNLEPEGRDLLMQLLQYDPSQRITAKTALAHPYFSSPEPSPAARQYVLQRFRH
# T3 sequence (P24864 whole entry partner): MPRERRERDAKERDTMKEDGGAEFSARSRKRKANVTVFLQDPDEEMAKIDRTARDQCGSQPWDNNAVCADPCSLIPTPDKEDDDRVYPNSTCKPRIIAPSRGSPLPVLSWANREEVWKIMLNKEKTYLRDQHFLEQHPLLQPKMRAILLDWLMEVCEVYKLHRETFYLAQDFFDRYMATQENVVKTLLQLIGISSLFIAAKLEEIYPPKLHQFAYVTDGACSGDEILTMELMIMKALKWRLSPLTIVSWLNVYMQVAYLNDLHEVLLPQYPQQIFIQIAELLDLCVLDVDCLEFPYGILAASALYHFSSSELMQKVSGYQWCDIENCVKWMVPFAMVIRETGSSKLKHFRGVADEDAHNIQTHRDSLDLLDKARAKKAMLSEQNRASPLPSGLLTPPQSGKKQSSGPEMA
# T8 sequence (P09619 33-1106): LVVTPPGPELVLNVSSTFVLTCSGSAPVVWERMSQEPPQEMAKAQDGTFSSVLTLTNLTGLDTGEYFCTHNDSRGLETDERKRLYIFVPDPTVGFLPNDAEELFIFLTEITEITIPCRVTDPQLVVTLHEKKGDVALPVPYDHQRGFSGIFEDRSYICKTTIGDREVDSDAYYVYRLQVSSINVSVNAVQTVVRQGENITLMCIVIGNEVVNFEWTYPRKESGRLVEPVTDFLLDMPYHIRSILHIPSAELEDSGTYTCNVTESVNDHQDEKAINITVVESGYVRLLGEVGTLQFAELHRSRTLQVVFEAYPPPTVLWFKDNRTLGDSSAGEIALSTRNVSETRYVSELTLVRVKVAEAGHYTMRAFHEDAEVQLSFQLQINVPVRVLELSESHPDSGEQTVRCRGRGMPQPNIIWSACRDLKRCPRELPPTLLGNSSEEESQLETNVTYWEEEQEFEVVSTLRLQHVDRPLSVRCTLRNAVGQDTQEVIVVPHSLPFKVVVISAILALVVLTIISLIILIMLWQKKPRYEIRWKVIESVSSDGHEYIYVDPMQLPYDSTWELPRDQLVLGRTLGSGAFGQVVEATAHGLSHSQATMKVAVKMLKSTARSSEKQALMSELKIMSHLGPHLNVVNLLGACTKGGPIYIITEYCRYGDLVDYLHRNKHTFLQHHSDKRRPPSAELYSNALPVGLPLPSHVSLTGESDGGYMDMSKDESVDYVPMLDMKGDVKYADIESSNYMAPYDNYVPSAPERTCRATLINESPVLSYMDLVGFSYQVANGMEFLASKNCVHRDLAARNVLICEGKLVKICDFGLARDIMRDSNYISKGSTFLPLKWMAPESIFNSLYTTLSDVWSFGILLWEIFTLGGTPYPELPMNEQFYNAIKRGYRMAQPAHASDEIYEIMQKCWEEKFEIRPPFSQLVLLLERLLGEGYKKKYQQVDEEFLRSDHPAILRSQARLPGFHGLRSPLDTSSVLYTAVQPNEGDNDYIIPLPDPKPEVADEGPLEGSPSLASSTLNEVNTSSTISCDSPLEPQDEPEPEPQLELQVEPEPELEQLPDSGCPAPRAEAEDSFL
# T7 sequence (Q15746 whole entry): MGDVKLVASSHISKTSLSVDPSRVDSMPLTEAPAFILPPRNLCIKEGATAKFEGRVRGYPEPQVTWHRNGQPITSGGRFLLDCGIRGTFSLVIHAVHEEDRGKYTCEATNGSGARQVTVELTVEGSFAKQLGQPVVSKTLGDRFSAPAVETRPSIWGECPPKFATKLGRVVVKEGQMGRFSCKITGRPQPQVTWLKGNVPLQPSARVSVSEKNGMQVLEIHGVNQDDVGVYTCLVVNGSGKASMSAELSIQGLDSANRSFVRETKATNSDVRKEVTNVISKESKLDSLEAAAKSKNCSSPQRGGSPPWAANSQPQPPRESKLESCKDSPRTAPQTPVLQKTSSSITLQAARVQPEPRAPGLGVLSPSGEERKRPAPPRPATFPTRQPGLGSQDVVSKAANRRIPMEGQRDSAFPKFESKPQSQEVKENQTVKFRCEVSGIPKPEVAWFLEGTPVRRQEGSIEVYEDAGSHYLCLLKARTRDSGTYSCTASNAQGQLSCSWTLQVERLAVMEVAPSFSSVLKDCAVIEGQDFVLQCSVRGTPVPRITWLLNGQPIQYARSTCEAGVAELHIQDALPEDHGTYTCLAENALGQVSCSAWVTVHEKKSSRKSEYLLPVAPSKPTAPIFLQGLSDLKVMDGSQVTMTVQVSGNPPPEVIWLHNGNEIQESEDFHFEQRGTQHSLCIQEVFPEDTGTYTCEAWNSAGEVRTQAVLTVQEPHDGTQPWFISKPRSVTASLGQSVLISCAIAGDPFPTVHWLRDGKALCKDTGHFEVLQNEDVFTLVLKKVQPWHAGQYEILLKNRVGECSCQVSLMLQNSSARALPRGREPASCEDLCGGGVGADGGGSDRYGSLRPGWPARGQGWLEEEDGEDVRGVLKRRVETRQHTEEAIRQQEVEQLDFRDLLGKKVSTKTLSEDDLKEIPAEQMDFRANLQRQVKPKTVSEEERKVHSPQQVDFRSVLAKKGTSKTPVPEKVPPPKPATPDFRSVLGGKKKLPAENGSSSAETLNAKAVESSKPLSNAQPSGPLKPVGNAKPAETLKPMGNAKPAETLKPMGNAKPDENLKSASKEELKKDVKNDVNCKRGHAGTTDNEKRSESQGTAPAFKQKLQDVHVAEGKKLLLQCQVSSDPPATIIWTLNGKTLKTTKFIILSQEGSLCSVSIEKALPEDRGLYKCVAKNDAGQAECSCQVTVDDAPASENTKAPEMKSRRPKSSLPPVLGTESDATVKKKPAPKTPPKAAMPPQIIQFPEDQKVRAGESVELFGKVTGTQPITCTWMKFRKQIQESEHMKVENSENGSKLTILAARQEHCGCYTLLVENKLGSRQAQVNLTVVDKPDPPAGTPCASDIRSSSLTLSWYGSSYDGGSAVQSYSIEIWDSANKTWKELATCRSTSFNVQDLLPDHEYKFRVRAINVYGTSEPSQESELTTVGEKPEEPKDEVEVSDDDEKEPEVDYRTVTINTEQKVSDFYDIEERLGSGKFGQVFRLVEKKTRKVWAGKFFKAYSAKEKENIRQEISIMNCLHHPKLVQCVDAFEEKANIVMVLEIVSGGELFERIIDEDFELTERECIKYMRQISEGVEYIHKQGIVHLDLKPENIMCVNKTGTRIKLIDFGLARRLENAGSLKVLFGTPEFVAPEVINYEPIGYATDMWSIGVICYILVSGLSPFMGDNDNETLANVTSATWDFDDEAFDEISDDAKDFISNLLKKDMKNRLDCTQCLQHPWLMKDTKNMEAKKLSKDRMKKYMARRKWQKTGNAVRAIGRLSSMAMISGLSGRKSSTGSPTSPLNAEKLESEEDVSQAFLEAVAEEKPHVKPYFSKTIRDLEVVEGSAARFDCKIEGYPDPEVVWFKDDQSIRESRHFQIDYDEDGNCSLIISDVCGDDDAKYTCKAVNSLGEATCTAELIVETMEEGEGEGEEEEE
# T4 sequence (Q86Z02 whole entry): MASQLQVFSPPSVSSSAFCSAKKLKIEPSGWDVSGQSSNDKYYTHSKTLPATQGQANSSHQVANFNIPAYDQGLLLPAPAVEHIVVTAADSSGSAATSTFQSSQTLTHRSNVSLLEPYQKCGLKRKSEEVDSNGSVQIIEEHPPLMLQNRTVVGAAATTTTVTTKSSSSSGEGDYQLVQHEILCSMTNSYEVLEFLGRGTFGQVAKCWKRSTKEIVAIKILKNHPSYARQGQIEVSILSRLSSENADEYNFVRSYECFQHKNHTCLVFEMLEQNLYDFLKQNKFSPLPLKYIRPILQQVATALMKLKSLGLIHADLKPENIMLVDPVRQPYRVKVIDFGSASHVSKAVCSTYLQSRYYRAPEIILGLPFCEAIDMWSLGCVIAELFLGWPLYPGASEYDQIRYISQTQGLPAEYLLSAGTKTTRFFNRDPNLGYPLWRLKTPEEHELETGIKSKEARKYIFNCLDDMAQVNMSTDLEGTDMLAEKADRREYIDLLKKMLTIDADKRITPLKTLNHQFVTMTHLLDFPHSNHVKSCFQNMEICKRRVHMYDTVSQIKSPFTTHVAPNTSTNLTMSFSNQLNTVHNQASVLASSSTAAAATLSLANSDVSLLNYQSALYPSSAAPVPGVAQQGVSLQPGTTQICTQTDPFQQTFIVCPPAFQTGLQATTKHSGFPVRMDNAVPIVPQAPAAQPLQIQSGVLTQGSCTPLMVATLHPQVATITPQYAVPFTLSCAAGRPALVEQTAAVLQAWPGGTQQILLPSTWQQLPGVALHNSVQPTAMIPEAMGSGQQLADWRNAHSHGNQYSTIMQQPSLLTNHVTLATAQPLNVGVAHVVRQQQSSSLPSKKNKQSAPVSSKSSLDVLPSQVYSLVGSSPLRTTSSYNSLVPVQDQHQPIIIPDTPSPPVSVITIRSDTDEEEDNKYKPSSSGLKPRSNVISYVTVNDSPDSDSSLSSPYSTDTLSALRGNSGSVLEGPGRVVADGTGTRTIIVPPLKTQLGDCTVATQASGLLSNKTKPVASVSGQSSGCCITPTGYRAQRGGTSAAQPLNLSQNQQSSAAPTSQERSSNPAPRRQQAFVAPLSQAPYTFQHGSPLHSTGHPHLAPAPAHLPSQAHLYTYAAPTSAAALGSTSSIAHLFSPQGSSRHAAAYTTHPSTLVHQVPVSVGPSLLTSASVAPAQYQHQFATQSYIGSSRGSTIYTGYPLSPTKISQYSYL
Structure (SMILES),Residual activity (AuroraA; 1.0E-05 M),Residual activity (AuroraA; 1.0E-06 M),Residual activity (CAMK2G; 1.0E-05 M),Residual activity (CAMK2G; 1.0E-06 M),Residual activity (CDK3/CycE1; 1.0E-05 M),Residual activity (CDK3/CycE1; 1.0E-06 M),Residual activity (HIPK1; 1.0E-05 M),Residual activity (HIPK1; 1.0E-06 M),Residual activity (MTOR; 1.0E-05 M),Residual activity (MTOR; 1.0E-06 M),Residual activity (MUSK; 1.0E-05 M),Residual activity (MUSK; 1.0E-06 M),Residual activity (MYLK; 1.0E-05 M),Residual activity (MYLK; 1.0E-06 M),Residual activity (PDGFRbeta; 1.0E-05 M),Residual activity (PDGFRbeta; 1.0E-06 M),Residual activity (PKCmu; 1.0E-05 M),Residual activity (PKCmu; 1.0E-06 M),Residual activity (RPS6KA1; 1.0E-05 M),Residual activity (RPS6KA1; 1.0E-06 M),further results
O=C(Nc1ccc(F)c(Nc2ccc3c(c2)CCCCC3=O)c1)c1cccc(F)c1 [Compound 109],90 % of control,93 % of control,111 % of control,109 % of control,82 % of control,91 % of control,93 % of control,90 % of control,94 % of control,94 % of control,83 % of control,97 % of control,64 % of control,81 % of control,99 % of control,98 % of control,96 % of control,95 % of control,95 % of control,96 % of control,Residual activity (SRC; 1.0E-05 M): 100 % of control; Residual activity (SRC; 1.0E-06 M): 107 % of control
O=C(Cc1ccccc1)Nc1ccc(F)c(Nc2ccc3c(c2)CCCCC3=O)c1 [Compound 100],91 % of control,96 % of control,107 % of control,105 % of control,80 % of control,90 % of control,91 % of control,100 % of control,92 % of control,93 % of control,93 % of control,98 % of control,78 % of control,92 % of control,99 % of control,100 % of control,94 % of control,106 % of control,96 % of control,110 % of control,Residual activity (SRC; 1.0E-05 M): 105 % of control; Residual activity (SRC; 1.0E-06 M): 117 % of control
